PMC4457528, “Identification of Novel Small Molecule Inhibitors of Oncogenic RET Kinase” (PLoS ONE, 2015)
Like-named read-outs stand apart in the source and are kept apart here.

Experiments:
Experiment in all cases: KinomeScan kinase panel, single concentration 10 µM
Assay type in all cases: binding
KinomeScan kinase panel [1] = target: T1, KinomeScan kinase panel (Homo sapiens, UniProt O95835); settings: LATS1, 10 µM; read-out: score (%)
T1 construct: purchased DiscoveRx (KinomeScan)
T1 sequence (O95835 1-1130): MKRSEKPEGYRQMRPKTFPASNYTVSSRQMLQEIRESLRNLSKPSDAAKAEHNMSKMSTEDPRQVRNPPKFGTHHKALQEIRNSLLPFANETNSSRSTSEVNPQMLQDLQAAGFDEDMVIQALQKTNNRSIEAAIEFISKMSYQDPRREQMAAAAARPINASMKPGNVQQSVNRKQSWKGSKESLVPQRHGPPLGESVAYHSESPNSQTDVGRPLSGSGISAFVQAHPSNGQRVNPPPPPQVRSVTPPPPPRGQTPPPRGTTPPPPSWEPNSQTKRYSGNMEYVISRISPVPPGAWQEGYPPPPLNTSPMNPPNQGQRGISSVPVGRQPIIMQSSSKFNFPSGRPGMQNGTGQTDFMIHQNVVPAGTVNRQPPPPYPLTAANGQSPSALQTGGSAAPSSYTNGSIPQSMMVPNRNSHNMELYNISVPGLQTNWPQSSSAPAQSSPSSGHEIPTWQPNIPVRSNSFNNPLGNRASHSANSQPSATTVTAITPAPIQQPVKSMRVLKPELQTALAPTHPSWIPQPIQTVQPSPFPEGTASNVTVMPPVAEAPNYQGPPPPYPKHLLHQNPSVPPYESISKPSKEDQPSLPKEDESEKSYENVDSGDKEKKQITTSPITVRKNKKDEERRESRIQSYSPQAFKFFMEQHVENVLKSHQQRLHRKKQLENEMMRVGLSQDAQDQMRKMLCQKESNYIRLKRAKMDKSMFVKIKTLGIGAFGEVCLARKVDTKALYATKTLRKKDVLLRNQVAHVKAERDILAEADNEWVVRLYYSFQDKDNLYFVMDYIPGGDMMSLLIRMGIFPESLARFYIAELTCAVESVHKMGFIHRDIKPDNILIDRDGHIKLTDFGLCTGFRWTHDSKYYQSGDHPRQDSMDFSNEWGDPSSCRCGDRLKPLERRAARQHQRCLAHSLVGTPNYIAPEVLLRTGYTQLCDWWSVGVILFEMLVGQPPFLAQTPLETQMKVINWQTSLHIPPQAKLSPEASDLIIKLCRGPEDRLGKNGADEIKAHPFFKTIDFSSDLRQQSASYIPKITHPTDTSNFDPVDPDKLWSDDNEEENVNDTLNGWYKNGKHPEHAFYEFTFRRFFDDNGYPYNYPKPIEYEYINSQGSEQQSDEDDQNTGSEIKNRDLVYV

KinomeScan kinase panel [2] = target: T2, KinomeScan kinase panel (Homo sapiens, UniProt P00519, M351T); settings: 10 µM, read-out: score (%)
T2 construct: purchased DiscoveRx (KinomeScan)

KinomeScan kinase panel [3] = target: T3, KinomeScan kinase panel (Homo sapiens, UniProt P14616); settings: INSRR, 10 µM; read-out: score (%)
T3 construct: purchased DiscoveRx (KinomeScan)
T3 sequence (P14616 27-1297): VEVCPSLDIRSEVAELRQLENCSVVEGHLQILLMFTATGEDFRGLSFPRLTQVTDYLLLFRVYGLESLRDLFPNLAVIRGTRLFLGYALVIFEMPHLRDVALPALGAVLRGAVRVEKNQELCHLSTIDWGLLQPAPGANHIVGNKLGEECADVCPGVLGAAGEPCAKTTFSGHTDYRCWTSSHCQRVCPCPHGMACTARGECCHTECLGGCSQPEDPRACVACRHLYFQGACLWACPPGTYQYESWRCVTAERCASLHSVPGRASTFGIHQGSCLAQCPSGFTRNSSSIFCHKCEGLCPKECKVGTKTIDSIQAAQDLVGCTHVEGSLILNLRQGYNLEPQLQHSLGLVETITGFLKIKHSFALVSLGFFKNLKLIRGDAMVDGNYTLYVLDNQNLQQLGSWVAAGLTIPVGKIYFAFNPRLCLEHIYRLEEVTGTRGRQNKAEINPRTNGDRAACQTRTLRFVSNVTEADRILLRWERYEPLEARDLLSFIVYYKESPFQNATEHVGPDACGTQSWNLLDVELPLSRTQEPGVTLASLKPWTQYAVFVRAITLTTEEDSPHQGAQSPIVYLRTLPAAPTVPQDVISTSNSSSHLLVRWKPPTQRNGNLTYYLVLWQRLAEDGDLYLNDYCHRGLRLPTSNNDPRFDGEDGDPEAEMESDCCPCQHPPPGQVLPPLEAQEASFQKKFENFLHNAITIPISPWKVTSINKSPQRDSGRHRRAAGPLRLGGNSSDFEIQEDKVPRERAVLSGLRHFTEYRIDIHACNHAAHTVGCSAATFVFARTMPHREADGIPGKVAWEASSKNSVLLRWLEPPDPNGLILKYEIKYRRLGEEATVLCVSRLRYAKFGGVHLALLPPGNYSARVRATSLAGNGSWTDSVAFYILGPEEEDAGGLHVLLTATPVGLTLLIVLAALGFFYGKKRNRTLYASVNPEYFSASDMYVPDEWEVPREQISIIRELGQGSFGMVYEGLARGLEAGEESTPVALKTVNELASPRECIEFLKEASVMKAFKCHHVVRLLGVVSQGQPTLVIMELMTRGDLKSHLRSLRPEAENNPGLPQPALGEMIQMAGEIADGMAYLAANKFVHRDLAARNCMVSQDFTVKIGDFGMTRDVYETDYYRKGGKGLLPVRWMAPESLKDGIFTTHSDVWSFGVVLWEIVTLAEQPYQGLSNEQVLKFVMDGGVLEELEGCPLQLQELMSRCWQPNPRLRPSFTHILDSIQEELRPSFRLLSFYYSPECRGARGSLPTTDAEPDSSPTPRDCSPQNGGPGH

KinomeScan kinase panel [4] = target: T4, KinomeScan kinase panel (Homo sapiens, UniProt P49840); settings: GSK3A, 10 µM; read-out: score (%)
T4 construct: purchased DiscoveRx (KinomeScan)
T4 sequence (P49840 whole entry): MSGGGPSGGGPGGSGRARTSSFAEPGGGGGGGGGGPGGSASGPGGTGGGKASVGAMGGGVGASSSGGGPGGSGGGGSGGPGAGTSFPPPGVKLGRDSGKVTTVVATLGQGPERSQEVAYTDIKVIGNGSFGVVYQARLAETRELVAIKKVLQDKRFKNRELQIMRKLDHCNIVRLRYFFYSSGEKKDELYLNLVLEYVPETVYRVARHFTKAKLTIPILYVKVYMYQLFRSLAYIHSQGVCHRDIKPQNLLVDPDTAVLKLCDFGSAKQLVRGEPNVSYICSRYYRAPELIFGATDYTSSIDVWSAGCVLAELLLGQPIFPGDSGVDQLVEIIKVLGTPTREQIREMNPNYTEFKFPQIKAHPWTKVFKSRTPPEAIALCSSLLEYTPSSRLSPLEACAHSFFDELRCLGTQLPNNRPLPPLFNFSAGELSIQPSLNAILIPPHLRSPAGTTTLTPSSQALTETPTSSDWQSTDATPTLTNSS

KinomeScan kinase panel [5] = target: T5, KinomeScan kinase panel (Homo sapiens, UniProt P53778); settings: p38-gamma, 10 µM; read-out: score (%)
T5 construct: purchased DiscoveRx (KinomeScan)
T5 sequence (P53778 1-367): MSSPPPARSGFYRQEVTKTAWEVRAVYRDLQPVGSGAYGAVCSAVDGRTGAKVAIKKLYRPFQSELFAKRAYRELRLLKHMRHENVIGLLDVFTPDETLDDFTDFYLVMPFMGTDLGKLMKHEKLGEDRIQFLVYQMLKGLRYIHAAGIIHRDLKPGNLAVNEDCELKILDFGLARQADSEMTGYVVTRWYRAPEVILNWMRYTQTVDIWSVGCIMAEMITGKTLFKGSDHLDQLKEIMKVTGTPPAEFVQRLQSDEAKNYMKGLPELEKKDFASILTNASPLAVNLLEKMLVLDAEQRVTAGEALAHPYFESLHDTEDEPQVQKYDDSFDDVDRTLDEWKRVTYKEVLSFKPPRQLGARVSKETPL

KinomeScan kinase panel [6] = target: T6, KinomeScan kinase panel (Homo sapiens, UniProt Q00535); settings: CDK5, 10 µM; read-out: score (%)
T6 construct: purchased DiscoveRx (KinomeScan)
T6 sequence (Q00535 whole entry): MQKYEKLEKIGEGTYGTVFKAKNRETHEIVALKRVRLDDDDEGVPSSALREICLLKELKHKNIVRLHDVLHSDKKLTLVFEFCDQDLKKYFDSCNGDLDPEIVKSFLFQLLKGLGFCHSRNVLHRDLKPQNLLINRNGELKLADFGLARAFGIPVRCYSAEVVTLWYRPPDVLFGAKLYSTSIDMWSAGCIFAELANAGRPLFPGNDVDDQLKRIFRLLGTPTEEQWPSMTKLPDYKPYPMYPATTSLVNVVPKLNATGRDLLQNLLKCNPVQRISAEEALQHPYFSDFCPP

KinomeScan kinase panel [7] = target: T7, KinomeScan kinase panel (Homo sapiens, UniProt Q06187); settings: BTK, 10 µM
T7 construct: purchased DiscoveRx (KinomeScan)
T7 sequence (Q06187 whole entry): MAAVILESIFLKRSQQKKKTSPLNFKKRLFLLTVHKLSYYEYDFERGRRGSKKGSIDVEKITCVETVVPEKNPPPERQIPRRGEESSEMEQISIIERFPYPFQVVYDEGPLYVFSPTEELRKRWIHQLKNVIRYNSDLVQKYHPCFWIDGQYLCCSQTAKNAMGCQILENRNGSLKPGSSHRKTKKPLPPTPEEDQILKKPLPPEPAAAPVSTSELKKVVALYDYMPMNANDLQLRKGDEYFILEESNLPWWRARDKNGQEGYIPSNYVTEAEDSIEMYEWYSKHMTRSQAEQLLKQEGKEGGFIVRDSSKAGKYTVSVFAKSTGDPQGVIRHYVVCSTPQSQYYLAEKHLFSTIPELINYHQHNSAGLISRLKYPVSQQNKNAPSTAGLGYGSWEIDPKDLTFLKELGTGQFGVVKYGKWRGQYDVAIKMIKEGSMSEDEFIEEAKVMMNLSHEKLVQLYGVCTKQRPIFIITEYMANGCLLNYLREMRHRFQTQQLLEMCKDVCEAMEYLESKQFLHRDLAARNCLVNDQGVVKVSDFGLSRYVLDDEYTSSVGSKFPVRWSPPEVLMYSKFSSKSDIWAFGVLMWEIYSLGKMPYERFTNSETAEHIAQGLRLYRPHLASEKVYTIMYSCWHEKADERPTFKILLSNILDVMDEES

KinomeScan kinase panel [8] = target: T8, KinomeScan kinase panel (Homo sapiens, UniProt Q13557); settings: CAMK2D, 10 µM; read-out: score (%)
T8 construct: purchased DiscoveRx (KinomeScan)
T8 sequence (Q13557 whole entry): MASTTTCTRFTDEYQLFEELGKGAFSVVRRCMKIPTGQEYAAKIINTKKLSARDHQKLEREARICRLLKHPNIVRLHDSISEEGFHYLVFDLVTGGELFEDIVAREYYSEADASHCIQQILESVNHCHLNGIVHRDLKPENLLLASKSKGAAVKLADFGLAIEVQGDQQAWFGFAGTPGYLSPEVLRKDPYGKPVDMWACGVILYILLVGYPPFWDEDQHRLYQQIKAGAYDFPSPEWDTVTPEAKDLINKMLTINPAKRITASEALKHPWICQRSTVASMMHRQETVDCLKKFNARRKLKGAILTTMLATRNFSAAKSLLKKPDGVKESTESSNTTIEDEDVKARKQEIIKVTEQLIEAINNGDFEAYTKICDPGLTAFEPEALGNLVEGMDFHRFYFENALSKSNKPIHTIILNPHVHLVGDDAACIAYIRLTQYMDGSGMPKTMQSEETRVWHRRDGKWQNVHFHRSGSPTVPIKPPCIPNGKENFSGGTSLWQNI

KinomeScan kinase panel [9] = target: T9, KinomeScan kinase panel (Homo sapiens, UniProt Q86Z02); settings: HIPK1, 10 µM; read-out: score (%)
T9 construct: purchased DiscoveRx (KinomeScan)
T9 sequence (Q86Z02 whole entry): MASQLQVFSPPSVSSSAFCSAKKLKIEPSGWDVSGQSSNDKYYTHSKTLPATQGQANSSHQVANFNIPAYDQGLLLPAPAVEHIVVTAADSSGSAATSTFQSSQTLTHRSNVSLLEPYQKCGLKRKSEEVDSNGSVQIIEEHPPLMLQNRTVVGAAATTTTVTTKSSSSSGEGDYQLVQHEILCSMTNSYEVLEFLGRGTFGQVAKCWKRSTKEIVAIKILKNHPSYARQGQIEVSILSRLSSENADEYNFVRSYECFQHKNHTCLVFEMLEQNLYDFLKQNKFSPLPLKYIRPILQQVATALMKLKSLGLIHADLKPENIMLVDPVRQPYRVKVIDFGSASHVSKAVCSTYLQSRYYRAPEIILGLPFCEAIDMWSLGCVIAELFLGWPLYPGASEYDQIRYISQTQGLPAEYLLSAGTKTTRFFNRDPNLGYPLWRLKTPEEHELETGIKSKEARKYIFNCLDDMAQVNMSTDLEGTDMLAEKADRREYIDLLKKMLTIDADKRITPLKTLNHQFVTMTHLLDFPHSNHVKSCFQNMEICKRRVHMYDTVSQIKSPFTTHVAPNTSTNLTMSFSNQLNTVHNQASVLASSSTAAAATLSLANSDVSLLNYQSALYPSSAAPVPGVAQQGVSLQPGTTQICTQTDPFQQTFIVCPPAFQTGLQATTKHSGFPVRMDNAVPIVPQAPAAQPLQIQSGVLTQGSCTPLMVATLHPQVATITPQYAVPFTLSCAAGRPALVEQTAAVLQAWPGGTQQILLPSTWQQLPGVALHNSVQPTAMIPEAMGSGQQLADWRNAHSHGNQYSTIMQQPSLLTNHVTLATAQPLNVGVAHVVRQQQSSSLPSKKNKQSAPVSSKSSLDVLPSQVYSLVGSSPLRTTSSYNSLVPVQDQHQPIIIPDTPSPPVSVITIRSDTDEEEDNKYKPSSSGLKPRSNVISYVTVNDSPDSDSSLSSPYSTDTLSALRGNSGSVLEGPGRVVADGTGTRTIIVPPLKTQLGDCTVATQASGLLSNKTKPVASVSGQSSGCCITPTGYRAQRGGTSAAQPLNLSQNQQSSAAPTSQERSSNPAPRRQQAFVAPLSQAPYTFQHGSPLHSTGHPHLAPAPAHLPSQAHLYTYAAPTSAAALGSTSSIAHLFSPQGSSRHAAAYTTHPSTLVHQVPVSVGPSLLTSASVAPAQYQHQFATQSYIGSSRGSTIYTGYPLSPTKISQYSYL

KinomeScan kinase panel [10] = target: T10, KinomeScan kinase panel (Homo sapiens, UniProt Q9HAZ1); settings: CLK4, 10 µM; read-out: score (%)
T10 construct: purchased DiscoveRx (KinomeScan)
T10 sequence (Q9HAZ1 whole entry): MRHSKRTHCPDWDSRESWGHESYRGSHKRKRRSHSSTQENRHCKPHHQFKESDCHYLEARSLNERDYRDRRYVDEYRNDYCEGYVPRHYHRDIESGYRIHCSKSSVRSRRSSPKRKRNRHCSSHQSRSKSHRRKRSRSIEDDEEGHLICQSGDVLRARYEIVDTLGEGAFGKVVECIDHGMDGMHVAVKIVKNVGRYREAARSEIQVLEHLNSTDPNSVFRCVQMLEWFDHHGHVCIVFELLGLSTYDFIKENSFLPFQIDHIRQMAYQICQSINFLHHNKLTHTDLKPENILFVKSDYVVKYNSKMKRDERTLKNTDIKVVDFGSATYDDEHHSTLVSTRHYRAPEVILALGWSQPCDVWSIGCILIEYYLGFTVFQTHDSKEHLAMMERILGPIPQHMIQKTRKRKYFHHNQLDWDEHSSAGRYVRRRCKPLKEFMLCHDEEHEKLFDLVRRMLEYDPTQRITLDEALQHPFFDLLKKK

Row | SMILES | remaining binding at 10 µM (KinomeScan kinase panel [1]) [%] | remaining binding at 10 µM (KinomeScan kinase panel [2]; ABL1(M351T)) [%] | remaining binding at 10 µM (KinomeScan kinase panel [3]) [%] | remaining binding at 10 µM (KinomeScan kinase panel [4]) [%] | remaining binding at 10 µM (KinomeScan kinase panel [5]) [%] | remaining binding at 10 µM (KinomeScan kinase panel [6]) [%] | score (%) (KinomeScan kinase panel [7]) | remaining binding at 10 µM (KinomeScan kinase panel [8]) [%] | remaining binding at 10 µM (KinomeScan kinase panel [9]) [%] | remaining binding at 10 µM (KinomeScan kinase panel [10]) [%] | remaining binding at 10 µM (KinomeScan kinase panel [2]; ABL1(M351T)-phosphorylated) [%]
1 | CCN1CCN(Cc2ccc(NC(=O)c3ccc(C)c(NC(=O)c4cncc(-c5cccs5)c4)c3)cc2C(F)(F)F)CC1 [ALW-II-41-27] | > 30 | 0.55 | 8.8 | > 30 | 3.6 | > 30 | 0.1 | > 30 | > 30 | 5.3 | 
2 | CCN1CCN(Cc2ccc(NC(=O)c3ccc(C)c(/C=C/c4cnc5[nH]ccc5c4Cl)c3)cc2C(F)(F)F)CC1 [HG-6-63-01, (E)-3-(2-(4-chloro-1H-pyrrolo[2,3-b]pyridin-5-yl)vinyl)-N-(4-((4-ethylpiperazin-1-yl)methyl)-3-(trifluoromethyl)phenyl)-4-methylbenzamide] | > 30 | 0.1 | > 30 | > 30 | 13 | > 30 | 3.8 | > 30 | > 30 | > 30 | 
3 | CCN1CCN(Cc2ccc(NC(=O)c3ccc(C)c(C#Cc4cccnc4)c3)cc2C(F)(F)F)CC1 [XMD15-44] | 20 |  | > 30 | > 30 | 2.7 | 10 | 2 | > 30 | > 30 | 15 | 2.6
